According to ChEMBL document CHEMBL1201862, “PubChem BioAssay data set” (2004):
The source made the active and inactive calls.

Assays:
[1] = molecular target: T1, E3 ubiquitin-protein ligase XIAP (Homo sapiens, UniProt P98170); test: SAR analysis of Antagonists of XIAP-Bir3 domain of IAP-family anti-apoptotic proteins. [Related pubchem assays (depositor defined):AID1018, AID1449, AID1513, AID1514, AID1638]
[2] = molecular target: T1, E3 ubiquitin-protein ligase XIAP; test: SAR analysis of Antagonists of IAP-family anti-apoptotic proteins. [Related pubchem assays (depositor defined):AID1018, AID1449, AID1513, AID1514, AID1638]
[3] = molecular target: T2, SUMO-activating enzyme (Homo sapiens, UniProt Q9UBT2); test: blockers of SAE1/SAE2–UBC9 SUMO transfer – biochemical, HTRF, uHTS, primary screen (AID 2006); format: protein-complex assay
[4] = molecular target: T2, SUMO-activating enzyme; test: blockers of UBC9-mediated SUMO conjugation – biochemical, AlphaScreen, SUMOylation inhibitor project, confirmation (AID 2018); format: functional
[5] = molecular target: Genome polyprotein (dengue virus type 2, UniProt P29990); test: flavivirus cap methylation enzyme inhibition – biochemical, confirmation dose response, primary screen (AID 588689); format: functional
[6] = molecular target: T3, Aspartyl aminopeptidase (Plasmodium falciparum 3D7, UniProt Q8I2J3); test: Counterscreen for inhibitors of M1 and M17 aminopeptidases: QFRET-based biochemical high throughput dose response assay for inhibitors of the Plasmodium falciparum M18 Aspartyl Aminopeptidase (PFM18AAP). [Related PubChem assays: 1619 (Screening assay (M17LAP inhibitors).), 1445 (Screening assay (M1AAP inhibitors).)]
T3 sequence (Q8I2J3 whole entry): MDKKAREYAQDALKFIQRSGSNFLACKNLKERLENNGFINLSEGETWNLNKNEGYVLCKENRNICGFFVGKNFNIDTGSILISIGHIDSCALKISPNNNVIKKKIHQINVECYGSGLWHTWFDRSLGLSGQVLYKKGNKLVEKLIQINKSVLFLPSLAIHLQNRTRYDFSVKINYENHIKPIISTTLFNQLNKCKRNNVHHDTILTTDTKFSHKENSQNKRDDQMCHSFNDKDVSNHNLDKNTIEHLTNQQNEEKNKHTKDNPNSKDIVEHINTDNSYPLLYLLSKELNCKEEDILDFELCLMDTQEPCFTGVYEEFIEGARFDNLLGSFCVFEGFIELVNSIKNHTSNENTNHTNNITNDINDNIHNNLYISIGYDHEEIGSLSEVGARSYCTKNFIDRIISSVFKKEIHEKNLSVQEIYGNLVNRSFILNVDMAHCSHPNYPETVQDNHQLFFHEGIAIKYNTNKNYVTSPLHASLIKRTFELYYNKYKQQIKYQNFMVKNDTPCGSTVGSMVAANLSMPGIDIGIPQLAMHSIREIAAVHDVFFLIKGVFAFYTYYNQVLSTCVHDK

[7] = molecular target: Procathepsin L (Homo sapiens, UniProt P07711); test: CTSL1 protease inhibition – biochemical, QFRET, 1536-well, counter-screen for M1/M17 aminopeptidase inhibitor project, dose response (AID 2214)
[8] = molecular target: T4, Aminopeptidase N (Plasmodium falciparum FcB1/Columbia, UniProt O96935); test: malaria alanyl aminopeptidase activity blockers – biochemical, fluorogenic H-Leu-NHMec substrate, 1536-well (AID 1445); parameters: species or system Plasmodium falciparum 3D7, 3D7
T4 sequence (O96935 whole entry): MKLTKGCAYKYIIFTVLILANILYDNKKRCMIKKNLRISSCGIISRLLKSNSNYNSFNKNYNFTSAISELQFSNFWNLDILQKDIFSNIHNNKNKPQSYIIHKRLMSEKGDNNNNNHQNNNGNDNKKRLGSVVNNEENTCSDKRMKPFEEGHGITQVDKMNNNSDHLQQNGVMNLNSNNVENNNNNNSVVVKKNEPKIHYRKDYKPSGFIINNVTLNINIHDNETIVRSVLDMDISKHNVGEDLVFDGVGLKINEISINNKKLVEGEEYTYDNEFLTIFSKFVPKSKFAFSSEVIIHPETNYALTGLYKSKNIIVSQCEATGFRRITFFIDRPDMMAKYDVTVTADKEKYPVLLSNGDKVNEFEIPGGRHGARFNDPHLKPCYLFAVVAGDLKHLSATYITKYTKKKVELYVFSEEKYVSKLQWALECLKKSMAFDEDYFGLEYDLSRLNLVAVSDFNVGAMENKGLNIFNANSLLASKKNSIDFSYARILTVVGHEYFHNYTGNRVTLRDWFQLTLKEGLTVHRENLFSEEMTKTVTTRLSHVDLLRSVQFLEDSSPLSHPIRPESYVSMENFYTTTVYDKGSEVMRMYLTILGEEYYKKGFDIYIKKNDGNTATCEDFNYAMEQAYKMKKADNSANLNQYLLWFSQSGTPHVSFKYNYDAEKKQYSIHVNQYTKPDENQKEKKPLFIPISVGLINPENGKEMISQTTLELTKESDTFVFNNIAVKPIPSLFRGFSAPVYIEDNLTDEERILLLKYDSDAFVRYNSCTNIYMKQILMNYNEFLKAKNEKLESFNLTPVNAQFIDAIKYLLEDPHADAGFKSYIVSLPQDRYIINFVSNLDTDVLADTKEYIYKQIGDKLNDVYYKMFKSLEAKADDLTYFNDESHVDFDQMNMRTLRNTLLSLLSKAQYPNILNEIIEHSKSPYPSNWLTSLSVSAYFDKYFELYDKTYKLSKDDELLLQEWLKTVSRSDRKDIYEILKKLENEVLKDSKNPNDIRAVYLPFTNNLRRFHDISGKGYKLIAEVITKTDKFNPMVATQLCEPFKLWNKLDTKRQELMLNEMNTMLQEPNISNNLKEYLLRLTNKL

T1 sequence (P98170 whole entry, the tested form may be a part): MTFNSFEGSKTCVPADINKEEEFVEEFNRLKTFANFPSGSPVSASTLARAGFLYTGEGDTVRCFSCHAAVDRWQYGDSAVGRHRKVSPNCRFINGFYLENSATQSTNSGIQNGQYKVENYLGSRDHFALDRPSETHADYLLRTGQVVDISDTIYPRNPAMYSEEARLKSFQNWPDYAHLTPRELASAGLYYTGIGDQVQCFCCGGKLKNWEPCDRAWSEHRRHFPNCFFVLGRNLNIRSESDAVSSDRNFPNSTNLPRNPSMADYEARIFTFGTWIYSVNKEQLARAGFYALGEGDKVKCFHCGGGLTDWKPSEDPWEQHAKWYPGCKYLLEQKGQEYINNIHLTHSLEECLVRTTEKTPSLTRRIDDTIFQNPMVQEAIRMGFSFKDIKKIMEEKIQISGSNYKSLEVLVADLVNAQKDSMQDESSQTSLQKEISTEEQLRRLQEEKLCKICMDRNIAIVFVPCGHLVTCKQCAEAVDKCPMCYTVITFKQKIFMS
T2 sequence (Q9UBE0 whole entry): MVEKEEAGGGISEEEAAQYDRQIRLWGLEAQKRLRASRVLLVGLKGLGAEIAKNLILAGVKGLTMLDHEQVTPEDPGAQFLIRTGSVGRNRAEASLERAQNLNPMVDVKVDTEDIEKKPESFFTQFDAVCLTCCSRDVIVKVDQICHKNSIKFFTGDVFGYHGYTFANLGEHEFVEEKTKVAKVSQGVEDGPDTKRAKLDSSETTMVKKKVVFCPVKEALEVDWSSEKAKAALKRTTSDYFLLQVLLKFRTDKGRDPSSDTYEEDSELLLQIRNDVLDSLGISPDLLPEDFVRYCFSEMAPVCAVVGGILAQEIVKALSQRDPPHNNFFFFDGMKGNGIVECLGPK
T2 sequence (Q9UBT2 whole entry): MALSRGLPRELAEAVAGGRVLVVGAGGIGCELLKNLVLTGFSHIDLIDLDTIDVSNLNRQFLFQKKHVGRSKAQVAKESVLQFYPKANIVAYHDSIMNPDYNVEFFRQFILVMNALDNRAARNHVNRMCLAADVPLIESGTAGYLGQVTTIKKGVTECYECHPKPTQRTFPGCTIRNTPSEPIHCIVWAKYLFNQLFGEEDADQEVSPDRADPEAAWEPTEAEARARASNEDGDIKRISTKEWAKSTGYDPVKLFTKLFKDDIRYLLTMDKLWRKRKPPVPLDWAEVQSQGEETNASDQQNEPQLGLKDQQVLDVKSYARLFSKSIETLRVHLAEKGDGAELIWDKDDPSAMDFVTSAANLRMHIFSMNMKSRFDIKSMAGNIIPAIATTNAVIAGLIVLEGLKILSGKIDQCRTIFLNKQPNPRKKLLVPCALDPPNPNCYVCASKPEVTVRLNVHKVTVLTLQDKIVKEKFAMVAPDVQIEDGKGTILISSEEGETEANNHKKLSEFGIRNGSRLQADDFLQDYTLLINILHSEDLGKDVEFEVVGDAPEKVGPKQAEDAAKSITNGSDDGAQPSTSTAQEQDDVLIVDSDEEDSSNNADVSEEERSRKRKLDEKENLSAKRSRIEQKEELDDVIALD
Genome polyprotein, sequence (P29990 2492-3391 limits assumed): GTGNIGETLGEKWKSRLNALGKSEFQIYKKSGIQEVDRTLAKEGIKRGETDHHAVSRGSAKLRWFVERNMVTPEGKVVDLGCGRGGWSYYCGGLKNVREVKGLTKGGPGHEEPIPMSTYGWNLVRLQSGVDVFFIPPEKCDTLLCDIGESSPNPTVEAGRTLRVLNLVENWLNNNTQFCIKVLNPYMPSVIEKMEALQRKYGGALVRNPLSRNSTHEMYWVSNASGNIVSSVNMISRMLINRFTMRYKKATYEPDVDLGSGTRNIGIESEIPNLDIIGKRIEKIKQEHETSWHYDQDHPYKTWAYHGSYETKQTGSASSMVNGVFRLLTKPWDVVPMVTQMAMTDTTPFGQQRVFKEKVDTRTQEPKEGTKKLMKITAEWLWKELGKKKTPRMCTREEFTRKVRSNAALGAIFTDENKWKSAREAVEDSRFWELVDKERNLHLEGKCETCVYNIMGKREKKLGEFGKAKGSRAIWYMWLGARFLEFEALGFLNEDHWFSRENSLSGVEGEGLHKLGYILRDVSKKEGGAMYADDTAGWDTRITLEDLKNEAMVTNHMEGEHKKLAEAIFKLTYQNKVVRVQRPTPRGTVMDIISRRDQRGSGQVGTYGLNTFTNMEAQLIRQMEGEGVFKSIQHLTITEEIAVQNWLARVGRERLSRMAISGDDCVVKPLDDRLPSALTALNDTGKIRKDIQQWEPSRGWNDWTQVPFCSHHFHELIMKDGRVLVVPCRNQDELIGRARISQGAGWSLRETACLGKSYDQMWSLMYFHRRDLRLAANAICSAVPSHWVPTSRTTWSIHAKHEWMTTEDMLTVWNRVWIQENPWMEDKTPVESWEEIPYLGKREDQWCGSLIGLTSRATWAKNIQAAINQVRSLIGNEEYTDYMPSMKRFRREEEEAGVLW
Procathepsin L, sequence (P07711 whole entry): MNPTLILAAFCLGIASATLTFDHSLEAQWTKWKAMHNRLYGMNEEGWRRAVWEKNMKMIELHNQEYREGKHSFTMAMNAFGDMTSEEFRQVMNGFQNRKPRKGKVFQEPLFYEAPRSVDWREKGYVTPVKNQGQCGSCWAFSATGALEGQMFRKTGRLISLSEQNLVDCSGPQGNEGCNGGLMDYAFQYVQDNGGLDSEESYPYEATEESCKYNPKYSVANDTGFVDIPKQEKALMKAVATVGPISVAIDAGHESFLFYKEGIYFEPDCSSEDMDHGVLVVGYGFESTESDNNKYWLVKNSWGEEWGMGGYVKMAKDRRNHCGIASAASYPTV

Row | SMILES | IC50 [1] | IC50 [2] | IC50 [3] | IC50 [4] | IC50 [5] | IC50 [6] | IC50 [7] | IC50 [8]
1 | CC(C)[C@H](NC(=O)[C@H](C)N)C(=O)N[C@@H](C)C(=O)Nc1cccc2ccccc12 | 103 µM (active) | 1.8 µM (active) |  |  |  |  |  | 
2 | CC(/C=C1\SC(=S)N(C(C(=O)O)c2ccccc2)C1=O)=C\c1ccccc1 (stereo not given) |  |  | 26.8 µM (active) | 10.9 µM (active) | 38.5 µM (active) | > 73.5 µM (not active) | > 59.6 µM (not active) | 12.4 µM (active)
3 | CN[C@@H](C)C(=O)N[C@H](C(=O)N[C@@H](C)C(=O)Nc1cccc2ncccc12)C(C)C | > 100 µM (inactive) | > 100 µM (inactive) |  |  |  |  |  | 
